Experimental data: US7943382B2, “Method for inspecting fat-soluble vitamin and/or fat-soluble food factor by saliva analysis” (Mitsubishi Chemical Medience Corporation, priority 2004, dated 2011)

Key:
[1] = Chromatograms of parotid saliva specimens A, B and C (HPLC with ECD detection); assay type: in vivo, human; settings: Supplement N, one tablet every morning and evening for a month (60 mg CoQ10, 20 mg α-tocopherol per day)
Method: In pretreatment of the specimens, 20 μl of plasma and 180 μl of ethanol (Wako Pure Chemical Industries, Ltd.: HPLC grade) were added to an autosampler vial (sampler vial PP 250 μl: Shiseido Co., Ltd.) to have a final ethanol concentration of 90% (V/V), which was centrifuged under cooling by 1000 G for 5 minutes to precipitate proteins. In the case of directly collected saliva, 150 μl of ethanol was added to 50 μl of the specimen to have a final ethanol concentration of 75% (V/V), which was centrifuged under cooling by 1000 G for 5 minutes to precipitate proteins. […]
Ubidecarenol, tocopherol, lycopene and β-carotene can be quantitatively analyzed at 600 mV. […] Therefore, CoQ10 is converted into ubidecarenol by reducing the carbonyl group to the OH group using the above-mentioned commercial online reduction column, and then detected in an oxidation mode using the amperometry-type electrochemical detector 3005 (Shiseido Co., Ltd.) or the pulse-type electrochemical detector 3016 (Shiseido Co., Ltd.) under the HPLC condition shown in FIGS. 1 and 2, allowing the bulk detection as shown in FIGS. 3 and 4. […]

[2] = Transition of the tocopherol level in parotid saliva on ingestion of supplement S; assay type: in vivo, human; settings: two tablets (32.8 mg α-tocopherol) every morning for a week, then two weeks discontinuation, 3 volunteers, FIG. 8
Method: 3 volunteers were made to ingest orally two commercial CoQ10 supplement S containing 32.8 mg of tocopherol per two tablets as α-tocopherol at 7:00 every morning continuously for a week, and as a specimen, parotid saliva was collected from PM 4:00 to 5:00, three times, that is, before ingestion and one week after ingestion and two weeks after discontinuation of ingestion. The volunteer had the mouth rinsed with water, and kept quiet on a chair for 5 minutes, while the volunteer accumulated saliva in the oral cavity and discharged to initialize the oral cavity, followed by collecting saliva. […] The ingestion states of the supplement, that is, before ingestion and one week after ingestion, and two weeks after discontinuation of ingestion are arranged on the horizontal axis as points, and the tocopherol concentrations (hereinafter, the measured concentration of tocopherol will be referred to “tocopherol level”) in parotid saliva are arranged on the vertical axis, and transition of the tocopherol level in parotid saliva depending on states of supplements with tocopherol is shown in FIG. 8.

[3] = Transition of the lycopene and β-carotene levels in parotid saliva on ingestion of lycopene + β-carotene MAX1; assay type: in vivo, human; settings: lycopene + β-carotene MAX1, two tablets (20 mg lycopene, 60 mg β-carotene) every morning for a week, then two weeks discontinuation; FIGS. 9 and 10
Method: 2 of 3 volunteers were made to ingest orally two commercial supplement lycopene +β-carotene MAX1 (trade name, Minami Healthy Food Co.) containing 10 mg of lycopene and 30 mg of β-carotene per one tablet (20 mg of lycopene and 60 mg of β-carotene per two tablet) at 7:00 every morning continuously for a week, and as a specimen, parotid saliva was collected from PM 4:00 to 5:00, three times, that is, before ingestion and one week after ingestion and two weeks after discontinuation of ingestion. The volunteer had the mouth rinsed with water, and kept quiet on a chair for 5 minutes, while the volunteer accumulated saliva in the oral cavity and discharged to initialize the oral cavity, followed by collecting saliva. […] The ingestion states of the supplement, that is, before ingestion and one week after ingestion, and two weeks after discontinuation of ingestion, are arranged on the horizontal axis as points, and the concentrations of lycopene and β-carotene (hereinafter, the measured concentrations of lycopene and β-carotene will be referred to “lycopene level” and “β-carotene level” respectively) in parotid saliva are arranged on the vertical axis, and transition of the lycopene and β-carotene levels in parotid saliva depending on ingestion of supplements is shown in FIGS. 9 and 10.

[4] = cited from earlier work

| peak in chromatogram of parotid saliva A (supplement-ingesting volunteer) compared with B (non-ingesting volunteer) [1] | Compound | transition of the tocopherol level in parotid saliva [2] | transition of the level in parotid saliva [3] | detection in the parotid saliva ([4]; Nonpatent document No. 1) | correlation between the serum level and the whole saliva level ([4]; Nonpatent documents No. 1 and 2) |
| --- | --- | --- | --- | --- | --- |
| higher peak | Tocopherol | increased by ingestion and decreased by discontinuation of ingestion | – | – | – |
| – | CC(C)=CCC/C(C)=C/C=C/C(C)=C/C=C/C(C)=C/C=C/C=C(C)/C=C/C=C(C)/C=C/C=C(\C)CCC=C(C)C [lycopene] | – | obviously increased in the two volunteers who ingested the supplement compared with one volunteer without ingestion, and decreased by discontinuation of ingestion | – | – |
| – | CC1=C(/C=C/C(C)=C/C=C/C(C)=C/C=C/C=C(C)/C=C/C=C(C)/C=C/C2=C(C)CCCC2(C)C)C(C)(C)CCC1 [β-carotene] | – | obviously increased in the two volunteers who ingested the supplement compared with one volunteer without ingestion, and decreased by discontinuation of ingestion | could not be detected | positive correlation |
